Experimental data published in publication PMC10635799, “Analogs of FTY720 inhibit TRPM7 but not S1PRs and exert multimodal anti-inflammatory effects” (The Journal of General Physiology, 2023).

Key:
alveolar macrophages = test: LPS-induced cytokine expression in primary alveolar macrophages (qRT-PCR); assay type: cell-based, mouse; conditions: 10 µM pretreatment, LPS 1 µg/ml for 3 h
Procedure: Alveolar macrophages were isolated and cultured from wildtype (WT) C57BL/6 mice (Strain #000664; Jackson Laboratory) using an established protocol ([Nayak et al., 2018]). […] Using a 5-ml syringe filled with 3 ml of bronchoalveolar lavage buffer (“BAL buffer”: Ca^2+- and Mg^2+-free PBS + 1 mM EDTA), the lungs were first filled with ∼2 ml of BAL buffer, then flushed five times in a cycle involving the installation and removal of 1 ml of buffer. The collected BAL fluid was pooled and the cyclical perfusion step was repeated with fresh buffer until a total of ∼10 ml of BAL fluid was collected. BAL fluid with gross evidence of blood contamination was discarded. A pellet was obtained through centrifugation at 500 × g for 5 min, and contaminating red blood cells were lysed by resuspending cells for 5 min in 5 ml of ice-cold ACK Lysis buffer (A1049201; Gibco). The cells were then pelleted at 500 × g for 5 min, resuspended in alveolar macrophage culture media (DMEM supplemented with 10% FBS, 20% L-929 culture supernatant, 1 mM sodium pyruvate, 10 mM HEPES, and 1× penicillin/streptomycin), and plated onto untreated tissue culture dishes for 24 h. The media was exchanged prior to use to remove unattached cells.
RAW 264.7 macrophages or BMDMs were seeded at a density of 250,000 cells per well into a 12-well tissue culture plate in 1 ml of media and left to incubate overnight. The indicated drug or vehicle control was added to each well, and the plate was agitated and left to incubate for 10 min. […] Cells were washed with PBS and then RNA isolation was performed using RNeasy Plus Micro Kit (74134; Qiagen). cDNA was produced using GoScript Reverse Transcriptase (A5004; Promega) and a quantitative PCR was performed using SensiFast SYBR (98020; Bioline) and Bio-Rad CFX Connect thermocycler. […] Fold-changes are all reported relative to untreated controls for each experiment and were calculated using the ∆∆Ct method, with β2-microglobulin used as the housekeeping gene for each sample. […]

RAW 264.7 macrophages = test: LPS-induced inflammatory gene expression (qRT-PCR) in RAW 264.7 macrophages; assay type: cell-based; conditions: LPS 1 µg/ml for 3 h
Procedure: RAW 264.7 macrophages or BMDMs were seeded at a density of 250,000 cells per well into a 12-well tissue culture plate in 1 ml of media and left to incubate overnight. The indicated drug or vehicle control was added to each well, and the plate was agitated and left to incubate for 10 min. The cells were then treated with LPS (1 μg/ml) or an equivalent volume of PBS, agitated, and left to incubate for 3 h. Cells were washed with PBS and then RNA isolation was performed using RNeasy Plus Micro Kit (74134; Qiagen). cDNA was produced using GoScript Reverse Transcriptase ([…]; Promega) and a quantitative PCR was performed using SensiFast SYBR (98020; Bioline) and Bio-Rad CFX Connect thermocycler. Each datum represents an individual, biological replicate that is the mean of duplicate technical replicates. Fold-changes are all reported relative to untreated controls for each experiment and were calculated using the ΔΔCt method, with β2-microglobulin used as the housekeeping gene for each sample. The experiment was performed similarly with BV-2 microglia and alveolar macrophages, except that cells were plated at a density of 100,000 cells per well into a 24-well tissue culture plate with 1 ml of media per well.

Which “LPS-induced CCL4 expression” value (alveolar macrophages) does the source give for `CCCCCCCCc1ccc([C@@H]2CC[C@@](N)(CO)C2)cc1` [VPC01091.4, ((1S,3R)-1-amino-3-(4-octylphenyl)cyclopentyl)methanol] here?
Its value is “significantly suppressed”.

What about the “LPS-induced IL-1β expression” value (alveolar macrophages) of the same compound?
Its value is “significantly suppressed”.

What about the “LPS-induced TNFα expression” value (alveolar macrophages) of the same compound?
Its value is “significantly suppressed”.

What about the “LPS-stimulated IL-1β gene expression” value (RAW 264.7 macrophages; 5 µM pretreatment) of the same compound?
The value was “almost completely abrogated”.

And the “LPS-stimulated IL-1β gene expression” value (RAW 264.7 macrophages; 10 µM pretreatment)?
Its value is “almost completely abrogated”.
